Experiments:
Hck = target: T1, Hck (Homo sapiens, UniProt P08631); assay: Hck enzyme inhibition (Z-LYTE FRET); assay type: biochemical; conditions: Table 2A
T1 construct: purchased Life Technologies
Procedure, shortened: (§1)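 Enzyme (1000, 1400 or 2000 ng/mL stocks for c-Src, Hck, Syk respectively) preincubated 2 h at RT with compound (0.0012–40 μg/mL series), then FRET peptide plus ATP (800 μM c-Src; 60 μM Hck, Syk stocks) for 1 h. Protease development 1 h; phosphorylation from coumarin/fluorescein emission ratio.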

c-Src = target: T2, c-Src (Homo sapiens, UniProt P12931); assay: c-Src enzyme inhibition (Z-LYTE FRET); assay type: biochemical; conditions: Table 2A
T2 construct: purchased Life Technologies
T2 sequence (P12931 whole entry): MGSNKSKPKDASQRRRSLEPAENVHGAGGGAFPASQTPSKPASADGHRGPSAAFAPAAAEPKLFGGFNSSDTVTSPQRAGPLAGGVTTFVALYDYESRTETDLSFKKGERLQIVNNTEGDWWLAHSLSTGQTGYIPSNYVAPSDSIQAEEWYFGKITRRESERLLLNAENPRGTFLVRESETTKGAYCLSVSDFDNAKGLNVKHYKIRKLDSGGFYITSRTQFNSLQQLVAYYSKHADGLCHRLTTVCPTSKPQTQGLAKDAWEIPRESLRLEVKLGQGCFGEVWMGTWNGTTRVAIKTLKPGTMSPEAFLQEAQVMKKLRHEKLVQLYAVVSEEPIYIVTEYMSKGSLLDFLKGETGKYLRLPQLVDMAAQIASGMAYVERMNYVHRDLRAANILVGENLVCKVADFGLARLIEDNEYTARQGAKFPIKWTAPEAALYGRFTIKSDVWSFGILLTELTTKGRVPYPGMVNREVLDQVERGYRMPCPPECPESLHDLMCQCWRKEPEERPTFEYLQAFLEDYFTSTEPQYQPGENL
Procedure, shortened: as §1

[1] = tested on: TNFα release in d-U937 cells; assay: LPS-induced TNFα release in d-U937 cells; assay type: cell-based; conditions: Homo sapiens, dU937; read-out: LPS Induced Release TNFα REC50 (dU937); further: relative to 10 µg/mL BIRB-796
Procedure, shortened: (§2)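 U937 cells differentiated with PMA (100–200 ng/mL, 48–72 h). Pre-treated with compound for 2 h, then stimulated with E. coli LPS (0.1 μg/mL) for 4 h. Supernatant TNFα and IL-8 measured by sandwich ELISA; inhibition versus vehicle, REC50 from concentration-response curves.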

d-U937 cells = assay: Cell viability: MTT assay in differentiated U937 cells; assay type: cell-based, human; conditions: 10 μg/mL
Procedure, shortened: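 Differentiated U937 cells exposed to compound at a final 10 μg/mL, either 4 h in 5% FCS RPMI1640 or 24 h in 10% FCS RPMI1640. MTT added for 1 h, formazan dissolved in DMSO, absorbance read at 550 nm; % viability loss relative to 0.5% DMSO vehicle, with increases shown as negative values.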

[2] = tested on: IL-8 release in d-U937 cells; assay: LPS-induced IL-8 release in d-U937 cells; assay type: cell-based; conditions: Homo sapiens, dU937, LPS 0.1 μg/mL 4 h
Procedure, shortened: as §2

GSK 3α enzyme isoform = target: T3, GSK 3α enzyme isoform (Homo sapiens, UniProt P49840); assay: GSK 3α enzyme inhibition (Z-LYTE FRET); assay type: biochemical; conditions: Table 2A; read-out: IC50 Values for Enzyme Inhibition GSK3α
T3 construct: purchased Life Technologies
T3 sequence (P49840 whole entry, canonical isoform): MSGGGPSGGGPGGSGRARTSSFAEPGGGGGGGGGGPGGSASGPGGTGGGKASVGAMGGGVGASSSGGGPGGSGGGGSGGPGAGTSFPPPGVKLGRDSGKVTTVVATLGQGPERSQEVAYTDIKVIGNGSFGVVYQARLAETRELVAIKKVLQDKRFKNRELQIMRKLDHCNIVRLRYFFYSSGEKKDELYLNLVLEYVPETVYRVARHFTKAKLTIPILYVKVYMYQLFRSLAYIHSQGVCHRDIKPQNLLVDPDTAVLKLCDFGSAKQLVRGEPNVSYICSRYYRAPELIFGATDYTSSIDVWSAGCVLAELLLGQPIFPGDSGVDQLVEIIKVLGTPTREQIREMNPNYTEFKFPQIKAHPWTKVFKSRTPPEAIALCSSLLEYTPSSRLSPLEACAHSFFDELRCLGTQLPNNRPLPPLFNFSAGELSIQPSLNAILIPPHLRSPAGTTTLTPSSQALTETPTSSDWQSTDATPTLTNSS
Procedure, shortened: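 Z-LYTE FRET kinase assay: GSK3α protein (500 ng/mL stock) preincubated with compound (0.0012–40 μg/mL stocks) for 2 h at RT. FRET peptide (8 μM stock) and ATP (40 μM stock) added for 1 h at RT, then protease development for 1 h. Phosphorylation taken from the coumarin/fluorescein emission ratio.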

p38MAPKγ (MAPK12) = target: T4, p38MAPKγ (MAPK12) (Homo sapiens, UniProt P53778); assay: p38 MAPKγ enzyme inhibition (Z-LYTE FRET); assay type: biochemical; conditions: Table 2A; read-out: IC50 Values for Enzyme Inhibition p38 MAPKγ
T4 construct: purchased Life Technologies
T4 sequence (P53778 1-367): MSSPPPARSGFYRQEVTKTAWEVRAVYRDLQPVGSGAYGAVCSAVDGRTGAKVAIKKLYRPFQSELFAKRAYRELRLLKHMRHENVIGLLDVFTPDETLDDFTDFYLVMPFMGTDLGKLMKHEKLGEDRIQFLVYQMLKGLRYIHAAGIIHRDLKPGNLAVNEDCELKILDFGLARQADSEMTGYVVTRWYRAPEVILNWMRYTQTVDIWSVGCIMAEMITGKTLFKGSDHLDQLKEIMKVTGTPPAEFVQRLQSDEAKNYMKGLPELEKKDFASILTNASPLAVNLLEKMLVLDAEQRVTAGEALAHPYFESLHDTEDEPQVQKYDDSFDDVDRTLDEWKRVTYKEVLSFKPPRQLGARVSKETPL
Procedure, shortened: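 Z-LYTE read-out: after 1 h protease development, only non-phosphorylated peptide is cleaved, and the donor/acceptor (coumarin/fluorescein) ratio reports phosphorylation. Beforehand, enzyme and compound (stock concentrations 0.0012–40 μg/mL) were preincubated 2 h at RT, then the kinase reaction ran 1 h at RT with peptide and ATP (8 μM and 400 μM stocks).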

Syk = target: T5, Syk (Homo sapiens, UniProt P43405); assay: Syk enzyme inhibition (Z-LYTE FRET); assay type: biochemical; conditions: Table 2A
T5 construct: purchased Life Technologies
Procedure, shortened: as §1

T1 sequence (P08631 22-526): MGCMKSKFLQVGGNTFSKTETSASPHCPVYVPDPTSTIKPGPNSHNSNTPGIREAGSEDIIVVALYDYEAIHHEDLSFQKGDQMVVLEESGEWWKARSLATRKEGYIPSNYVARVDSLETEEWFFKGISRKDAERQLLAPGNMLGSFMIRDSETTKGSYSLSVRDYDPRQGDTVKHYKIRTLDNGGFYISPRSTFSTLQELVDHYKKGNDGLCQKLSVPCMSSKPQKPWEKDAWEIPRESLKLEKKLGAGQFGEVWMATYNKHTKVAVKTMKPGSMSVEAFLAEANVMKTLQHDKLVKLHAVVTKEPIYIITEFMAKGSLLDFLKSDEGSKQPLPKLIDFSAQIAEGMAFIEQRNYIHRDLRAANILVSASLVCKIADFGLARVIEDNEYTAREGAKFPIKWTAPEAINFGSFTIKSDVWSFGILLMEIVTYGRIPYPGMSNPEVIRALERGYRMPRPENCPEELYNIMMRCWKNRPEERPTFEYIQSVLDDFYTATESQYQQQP

Compound | IC50 (Hck) [nM] | IC50 (c-Src) [nM] | EC50 [1] [nM] | IC50 [2] [nM] | IC50 (GSK 3α enzyme isoform) [nM] | IC50 (p38MAPKγ (MAPK12)) [nM] | IC50 (Syk) [nM] | MTT Assay Cell viability at time point indicated in d-U937 Cells, 4 h (d-U937 cells) | MTT Assay Cell viability at time point indicated in d-U937 Cells, 24 h (d-U937 cells)
Cc1cc(-n2nc(C(C)(C)C)cc2NC(=O)Nc2ccc(OCc3ccnc(Nc4cncc(C5CC5)n4)c3)c3ccccc23)cs1 [Example 27] | 13 | 42 | 4.3 | 4 | 1030 | 376 | 9160 | − (−ve and +ve indicate the value is below and above, respectively, the no significant effect threshold defined as 30% inhibition at 10 μg/mL at the time point indicated) | + (−ve and +ve indicate the value is below and above, respectively, the no significant effect threshold defined as 30% inhibition at 10 μg/mL at the time point indicated)
Cc1ccc(-n2nc(C(C)(C)C)cc2NC(=O)Nc2ccc(OCc3ccnc(Nc4cnc(CC(=O)N(C)C)cn4)c3)c3ccccc23)cc1 [Example 29] | 10 | 28 | 4.2 | 8.5 | 207 | 80 | > 14600 | − (−ve and +ve indicate the value is below and above, respectively, the no significant effect threshold defined as 30% inhibition at 10 μg/mL at the time point indicated) | + (−ve and +ve indicate the value is below and above, respectively, the no significant effect threshold defined as 30% inhibition at 10 μg/mL at the time point indicated)
Cc1ccc(-n2nc(C(C)(C)C)cc2NC(=O)Nc2ccc(OCc3ccnc(Nc4cncc(CC(N)=O)n4)c3)c3ccccc23)cc1 [Example 32] | 7 | 25 | 13 | 15 | 1320 | 37 | > 15200 | − (−ve and +ve indicate the value is below and above, respectively, the no significant effect threshold defined as 30% inhibition at 10 μg/mL at the time point indicated) | − (−ve and +ve indicate the value is below and above, respectively, the no significant effect threshold defined as 30% inhibition at 10 μg/mL at the time point indicated)
CNC(=O)Cc1cnc(Nc2cc(COc3ccc(NC(=O)Nc4cc(C(C)(C)C)nn4-c4ccc(C)cc4)c4ccccc34)ccn2)cn1 [Example 33] | 11 | 35 | 2.6 | 42.4 | 5960 | 53 | > 14900 | − (−ve and +ve indicate the value is below and above, respectively, the no significant effect threshold defined as 30% inhibition at 10 μg/mL at the time point indicated) | − (−ve and +ve indicate the value is below and above, respectively, the no significant effect threshold defined as 30% inhibition at 10 μg/mL at the time point indicated)
CC(C)(C)c1cc(NC(=O)Nc2ccc(OCc3ccnc(Nc4cncc(C5CC5)n4)c3)c3ccccc23)n(-c2ccc(O)cc2)n1 [Example 34] | 7 | 18 | 5.4 | 8.3 | 1200 | 274 | 4260 | − (−ve and +ve indicate the value is below and above, respectively, the no significant effect threshold defined as 30% inhibition at 10 μg/mL at the time point indicated) | − (−ve and +ve indicate the value is below and above, respectively, the no significant effect threshold defined as 30% inhibition at 10 μg/mL at the time point indicated)
Cc1ccc(-n2nc(C(C)(C)C)cc2NC(=O)Nc2ccc(OCc3ccnc(Nc4cnc(C(=O)N5CCOCC5)cn4)c3)c3ccccc23)cc1 [Example 35] | 42 | 51 | 12.1 | 102 | 3430 | 171 | > 14000 | − (−ve and +ve indicate the value is below and above, respectively, the no significant effect threshold defined as 30% inhibition at 10 μg/mL at the time point indicated) | − (−ve and +ve indicate the value is below and above, respectively, the no significant effect threshold defined as 30% inhibition at 10 μg/mL at the time point indicated)

Further lines, with some results ahead:

IC50 (Hck) [nM] | IC50 (c-Src) [nM] | EC50 [1] [nM] | IC50 [2] [nM] | IC50 (GSK 3α enzyme isoform) [nM] | IC50 (p38MAPKγ (MAPK12)) [nM] | IC50 (Syk) [nM] | Compound | MTT Assay Cell viability at time point indicated in d-U937 Cells, 4 h (d-U937 cells) | MTT Assay Cell viability at time point indicated in d-U937 Cells, 24 h (d-U937 cells)
5 | 10 | 1.4 | 5.8 | 523 | 49 | 2220 | CC(C)(C)c1cc(NC(=O)Nc2ccc(OCc3ccnc(Nc4cncc(C5CC5)n4)c3)c3ccccc23)n(-c2ccc(CO)cc2)n1 [Example 25] | − (−ve and +ve indicate the value is below and above, respectively, the no significant effect threshold defined as 30% inhibition at 10 μg/mL at the time point indicated) | + (−ve and +ve indicate the value is below and above, respectively, the no significant effect threshold defined as 30% inhibition at 10 μg/mL at the time point indicated)
20 | 56 | 4.5 | 14.6 | 469 | 74 | 1580 | Cc1ccc(-n2nc(C(C)(C)C)cc2NC(=O)Nc2ccc(OCc3ccnc(Nc4cnc(CO)cn4)c3)c3ccccc23)s1 [Example 26] | − (−ve and +ve indicate the value is below and above, respectively, the no significant effect threshold defined as 30% inhibition at 10 μg/mL at the time point indicated) | + (−ve and +ve indicate the value is below and above, respectively, the no significant effect threshold defined as 30% inhibition at 10 μg/mL at the time point indicated)
11 | 32 | 2.7 | 29.9 | 5170 | 106 | > 14900 | CNC(=O)Cc1cncc(Nc2cc(COc3ccc(NC(=O)Nc4cc(C(C)(C)C)nn4-c4ccc(C)cc4)c4ccccc34)ccn2)n1 [Example 28] | − (−ve and +ve indicate the value is below and above, respectively, the no significant effect threshold defined as 30% inhibition at 10 μg/mL at the time point indicated) | + (−ve and +ve indicate the value is below and above, respectively, the no significant effect threshold defined as 30% inhibition at 10 μg/mL at the time point indicated)
6 | 19 | 5.2 | 6.9 | 1490 | 29 | > 15200 | Cc1ccc(-n2nc(C(C)(C)C)cc2NC(=O)Nc2ccc(OCc3ccnc(Nc4cnc(CC(N)=O)cn4)c3)c3ccccc23)cc1 [Example 30] | − (−ve and +ve indicate the value is below and above, respectively, the no significant effect threshold defined as 30% inhibition at 10 μg/mL at the time point indicated) | − (−ve and +ve indicate the value is below and above, respectively, the no significant effect threshold defined as 30% inhibition at 10 μg/mL at the time point indicated)

— patent publication US11142515B2, “Pyrazolyl-ureas as kinase inhibitors” (RESPIVERT LIMITED, priority 2014, dated 2021)
